Assays:
Test in all cases: Proliferation assay (cell counts, growth inhibition)
Format in all cases: cell-based, human
KPL-1 = details: Luminal, ER Positive, HER-2 Normal, inhibition at 1 μM
MDA-MB-415 = details: Luminal, ER Positive, HER-2 Normal, inhibition at 1 μM
Description: (§1) The cell lines MDA-MB-415, MDA-MB-134, HCC-1500, ZR-75-30, HCC-202, HCC-1419, HCC-38, HCC-70, HCC-1187, HCC-1806, HCC-1937, HCC-1954, MDA-MB-436, HCC-1569, Hs578t, HCC-1143, MDA-MB-175, BT-474, SK-BR-3, MDA-MB-361, UAC-893, UACC-812, UACC-732, T-47D, MDA-MB-453, MDA-MB-468, CAMA-1, MDA-MB-157, MCF-7, MDA-MB-435, ZR-75-1, BT-20, and MDA-MB-231 were obtained from American Type Culture Collection (Rockville, Md.). The cell lines EFM-192A, KPL-1, EFM-19 and CAL-51 were obtained from the German Tissue Repository DSMZ (Braunschweig Germany), and the cell lines SUM-190 and SUM-225 were obtained from the University of Michigan (Ann Arbor, Mich.). MDA-MB-134, MDA-MB415, MDA-MB-436, MDA-MB-175, UACC-893, UACC-812, and MDA-MB-157 cells were cultured in L15 medium supplemented with 10% heat-inactivated fetal bovine serum (FBS), […] glutamine and 1% penicillin G-streptomycin-fungizone solution (PSF, Irvine Scientific, Santa Ana, Calif.). CAL-51, KPL-1, Hs578t cells were grown in DMEM supplemented with 10% heat-inactivated FBS and PSF, as above. SUM-190 and SUM-225 cells were cultured in HAM's F12 supplemented with 5% heat-inactivated FBS, PSF, […] hydrocortisone. The remaining cell lines were cultured in RPMI 1640 supplemented with 10% heat-inactivated FBS, 2 mmol/L glutamine, and PSF.
(§2) Cells were seeded in duplicate at 5,000 to 10,000 cells per well in 24-well plates. […] Control wells without drug were seeded as well. Both the adherent and floating fractions of cells were counted on days 2, 5 and 7 for both treatment and control wells. After trypsinization cells were placed in Isotone solution and counted immediately using a Coulter Z2 particle counter (Beckman Coulter Inc, Fullerton, Calif.).
(§3) Growth inhibition was calculated [(1-experimental value/control value)×100] for each day adding both the values obtained for the floating cells and the adherent cells. Pearson-Chi-square analysis was performed to identify a correlation between subtype and sensitivity to dasatinib. Dasatinib was a gift from Frank Lee at Bristol-Meyers-Squibb.

HCC-70 = details: Basal, ER Negative, HER-2 Normal, inhibition at 1 μM
Description: as §1, §2, §3

MDA-MB-436 = details: Post-EMT, ER Negative, HER-2 Normal, inhibition at 1 μM
Description: as §1, §2, §3

HCC-1806 = details: Basal, ER Negative, HER-2 Normal, inhibition at 1 μM
Description: as §1, §2, §3

MDA-MB-134 = details: Luminal, ER Positive, HER-2 Normal, inhibition at 1 μM
Description: as §1, §2, §3

EFM-19 = details: Luminal, ER Positive, HER-2 Normal, inhibition at 1 μM
Description: as §1, §2, §3

MDA-MB-468 = details: Basal, ER Negative, HER-2 Normal, inhibition at 1 μM
Description: as §1, §2, §3

UACC-732 = details: Luminal, ER Positive, HER-2 Amplified, inhibition at 1 μM
Description: as §1, §2, §3

MDA-MB-361 = details: Luminal, ER Positive, HER-2 Amplified, inhibition at 1 μM
Description: as §1, §2, §3

EFM-192A = details: Luminal, ER Positive, HER-2 Amplified, inhibition at 1 μM
Description: as §1, §2, §3

HCC-1954 = details: Basal, ER Negative, HER-2 Amplified, inhibition at 1 μM
Description: as §1, §2, §3

T-47D = details: Luminal, ER Positive, HER-2 Normal, inhibition at 1 μM
Description: as §1, §2, §3

UACC-893 = details: Luminal, ER Negative, HER-2 Amplified, inhibition at 1 μM
Description: as §1, §2, §3

HCC-1937 = details: Basal, ER Negative, HER-2 Normal, inhibition at 1 μM
Description: as §1, §2, §3

MDA-MB-175 = details: Luminal, ER Positive, HER-2 Normal, inhibition at 1 μM
Description: as §1, §2, §3

MCF-7 = details: Luminal, ER Positive, HER-2 Normal, inhibition at 1 μM
Description: as §1, §2, §3

HCC-1500 = details: Luminal, ER Positive, HER-2 Normal, inhibition at 1 μM
Description: as §1, §2, §3

CAL-51 = details: Post-EMT, ER Negative, HER-2 Normal, inhibition at 1 μM
Description: as §1, §2, §3

UACC-812 = details: Luminal, ER Positive, HER-2 Amplified, inhibition at 1 μM
Description: as §1, §2, §3

SK-BR-3 = details: Luminal, ER Negative, HER-2 Amplified, inhibition at 1 μM
Description: as §1, §2, §3

MDA-MB-157 = details: Post-EMT, ER Negative, HER-2 Normal, inhibition at 1 μM
Description: as §1, §2, §3

ZR-75-30 = details: Luminal, ER Positive, HER-2 Amplified, inhibition at 1 μM
Description: as §1, §2, §3

ZR-75-1 = details: Luminal, ER Positive, HER-2 Normal, inhibition at 1 μM
Description: as §1, §2, §3

BT-20 = details: Basal, ER Negative, HER-2 Normal, inhibition at 1 μM
Description: as §1, §2, §3

Hs578t = details: Post-EMT, ER Negative, HER-2 Normal, inhibition at 1 μM
Description: as §1, §2, §3

SUM-190 = details: Luminal, ER Negative, HER-2 Amplified, inhibition at 1 μM
Description: as §1, §2, §3

SUM-225 = details: Luminal, ER Negative, HER-2 Amplified, inhibition at 1 μM
Description: as §1, §2, §3

BT-474 = details: Luminal, ER Positive, HER-2 Amplified, inhibition at 1 μM
Description: as §1, §2, §3

HCC-1187 = details: Basal, ER Negative, HER-2 Normal, inhibition at 1 μM
Description: as §1, §2, §3

CAMA-1 = details: Luminal, ER Positive, HER-2 Normal, inhibition at 1 μM
Description: as §1, §2, §3

MDA-MB-231 = details: Post-EMT, ER Negative, HER-2 Normal, inhibition at 1 μM
Description: as §1, §2, §3

HCC-1569 = details: Post-EMT, ER Negative, HER-2 Amplified, inhibition at 1 μM
Description: as §1, §2, §3

HCC 38 = details: Basal, ER Negative, HER-2 Normal, inhibition at 1 μM
Description: as §1, §2, §3

HCC-1419 = details: Luminal, ER Positive, HER-2 Amplified, inhibition at 1 μM
Description: as §1, §2, §3

HCC-1143 = details: Basal, ER Negative, HER-2 Normal, inhibition at 1 μM
Description: as §1, §2, §3

HCC-202 = details: Luminal, ER Positive, HER-2 Amplified, inhibition at 1 μM
Description: as §1, §2, §3

MDA-MB-453 = details: Luminal, ER Negative, HER-2 Amplified, inhibition at 1 μM
Description: as §1, §2, §3

MDA-MB-435 = details: Post-EMT, ER Negative, HER-2 Normal, inhibition at 1 μM
Description: as §1, §2, §3

Structure (SMILES): Cc1nc(Nc2ncc(C(=O)Nc3c(C)cccc3Cl)s2)cc(N2CCN(CCO)CC2)n1 [Dasatinib, N-(2-chloro-6-methylphenyl)-2-[[6-[4-(2-hydroxyethyl)-1-piperazinyl]-2-methyl-4-pyrimidinyl]amino]-5-thiazolecarboxamide]
- Response to Dasatinib in vitro (KPL-1): Resistant (<40% inhibition at 1 μM assigned to the resistant group)
- Response to Dasatinib in vitro (MDA-MB-415): Resistant (<40% inhibition at 1 μM assigned to the resistant group)
- Response to Dasatinib in vitro (HCC-70): Highly Sensitive (greater than 60% inhibition being assigned to the highly sensitive group)
- Response to Dasatinib in vitro (MDA-MB-436): Highly Sensitive (greater than 60% inhibition being assigned to the highly sensitive group)
- Response to Dasatinib in vitro (HCC-1806): Highly Sensitive (greater than 60% inhibition being assigned to the highly sensitive group)
- Response to Dasatinib in vitro (MDA-MB-134): Resistant (<40% inhibition at 1 μM assigned to the resistant group)
- Response to Dasatinib in vitro (EFM-19): Moderately Sensitive (40-59% inhibition being assigned to the moderately sensitive group)
- Response to Dasatinib in vitro (MDA-MB-468): Resistant (<40% inhibition at 1 μM assigned to the resistant group)
- Response to Dasatinib in vitro (MDA-MB-468; listed as dasatinib): resistant
- Response to Dasatinib in vitro (UACC-732): Resistant (<40% inhibition at 1 μM assigned to the resistant group)
- Response to Dasatinib in vitro (MDA-MB-361): Moderately Sensitive (40-59% inhibition being assigned to the moderately sensitive group)
- Response to Dasatinib in vitro (EFM-192A): Resistant (<40% inhibition at 1 μM assigned to the resistant group)
- Response to Dasatinib in vitro (HCC-1954): Moderately Sensitive (40-59% inhibition being assigned to the moderately sensitive group)
- Response to Dasatinib in vitro (T-47D): Moderately Sensitive (40-59% inhibition being assigned to the moderately sensitive group)
- Response to Dasatinib in vitro (UACC-893): Resistant (<40% inhibition at 1 μM assigned to the resistant group)
- Response to Dasatinib in vitro (HCC-1937): Moderately Sensitive (40-59% inhibition being assigned to the moderately sensitive group)
- Response to Dasatinib in vitro (MDA-MB-175): Resistant (<40% inhibition at 1 μM assigned to the resistant group)
- Response to Dasatinib in vitro (MCF-7): Moderately Sensitive (40-59% inhibition being assigned to the moderately sensitive group)
- Response to Dasatinib in vitro (HCC-1500): Resistant (<40% inhibition at 1 μM assigned to the resistant group)
- Response to Dasatinib in vitro (CAL-51): Highly Sensitive (greater than 60% inhibition being assigned to the highly sensitive group)
- Response to Dasatinib in vitro (UACC-812): Resistant (<40% inhibition at 1 μM assigned to the resistant group)
- Response to Dasatinib in vitro (SK-BR-3): Resistant (<40% inhibition at 1 μM assigned to the resistant group)
- Response to Dasatinib in vitro (MDA-MB-157): Highly Sensitive (greater than 60% inhibition being assigned to the highly sensitive group)
- Response to Dasatinib in vitro (ZR-75-30): Resistant (<40% inhibition at 1 μM assigned to the resistant group)
- Response to Dasatinib in vitro (ZR-75-1): Resistant (<40% inhibition at 1 μM assigned to the resistant group)
- Response to Dasatinib in vitro (BT-20): Resistant (<40% inhibition at 1 μM assigned to the resistant group)
- Response to Dasatinib in vitro (Hs578t): Highly Sensitive (greater than 60% inhibition being assigned to the highly sensitive group)
- Response to Dasatinib in vitro (SUM-190): Resistant (<40% inhibition at 1 μM assigned to the resistant group)
- Response to Dasatinib in vitro (SUM-225): Resistant (<40% inhibition at 1 μM assigned to the resistant group)
- Response to Dasatinib in vitro (BT-474): Moderately Sensitive (40-59% inhibition being assigned to the moderately sensitive group)
- Response to Dasatinib in vitro (HCC-1187): Moderately Sensitive (40-59% inhibition being assigned to the moderately sensitive group)
- Response to Dasatinib in vitro (CAMA-1): Resistant (<40% inhibition at 1 μM assigned to the resistant group)
- Response to Dasatinib in vitro (MDA-MB-231): Highly Sensitive (greater than 60% inhibition being assigned to the highly sensitive group)
- Response to Dasatinib in vitro (MDA-MB-231; listed as dasatinib): highly sensitive
- Response to Dasatinib in vitro (HCC-1569): Resistant (<40% inhibition at 1 μM assigned to the resistant group)
- Response to Dasatinib in vitro (HCC 38): Resistant (<40% inhibition at 1 μM assigned to the resistant group)
- Response to Dasatinib in vitro (HCC-1419): Moderately Sensitive (40-59% inhibition being assigned to the moderately sensitive group)
- Response to Dasatinib in vitro (HCC-1143): Moderately Sensitive (40-59% inhibition being assigned to the moderately sensitive group)
- Response to Dasatinib in vitro (HCC-202): Resistant (<40% inhibition at 1 μM assigned to the resistant group)
- Response to Dasatinib in vitro (MDA-MB-453): Resistant (<40% inhibition at 1 μM assigned to the resistant group)
- Response to Dasatinib in vitro (MDA-MB-435): Highly Sensitive (greater than 60% inhibition being assigned to the highly sensitive group)
- Response to Dasatinib in vitro (MDA-MB-435; listed as dasatinib): highly sensitive

Reference: patent US8007995B2 (Bristol-Myers Squibb Company, priority 2005, dated 2011)
